Results as given in patent US10179789B2, “Methylenedioxybenzo [I] phenanthridine derivatives used to treat cancer” (Rutgers, The State University of New Jersey, priority 2009, dated 2019).
Read-outs that look alike come from different tables or passages of the source.

How the values were obtained:
human topoisomerase I = biological target: T1, human topoisomerase I (Homo sapiens, UniProt P11387); assay: Test A. Topoisomerase I-mediated DNA cleavage assay; assay type: biochemical; conditions: Relative Effective Concentration; relative to camptothecin arbitrarily assumed as 0.2; same 10% cleavage on plasmid DNA
T1 construct: unnamed fusion partner (recombinant fusion protein, T7 expression system); made in house; host or cells: Escherichia coli
T1 sequence (P11387 1-765): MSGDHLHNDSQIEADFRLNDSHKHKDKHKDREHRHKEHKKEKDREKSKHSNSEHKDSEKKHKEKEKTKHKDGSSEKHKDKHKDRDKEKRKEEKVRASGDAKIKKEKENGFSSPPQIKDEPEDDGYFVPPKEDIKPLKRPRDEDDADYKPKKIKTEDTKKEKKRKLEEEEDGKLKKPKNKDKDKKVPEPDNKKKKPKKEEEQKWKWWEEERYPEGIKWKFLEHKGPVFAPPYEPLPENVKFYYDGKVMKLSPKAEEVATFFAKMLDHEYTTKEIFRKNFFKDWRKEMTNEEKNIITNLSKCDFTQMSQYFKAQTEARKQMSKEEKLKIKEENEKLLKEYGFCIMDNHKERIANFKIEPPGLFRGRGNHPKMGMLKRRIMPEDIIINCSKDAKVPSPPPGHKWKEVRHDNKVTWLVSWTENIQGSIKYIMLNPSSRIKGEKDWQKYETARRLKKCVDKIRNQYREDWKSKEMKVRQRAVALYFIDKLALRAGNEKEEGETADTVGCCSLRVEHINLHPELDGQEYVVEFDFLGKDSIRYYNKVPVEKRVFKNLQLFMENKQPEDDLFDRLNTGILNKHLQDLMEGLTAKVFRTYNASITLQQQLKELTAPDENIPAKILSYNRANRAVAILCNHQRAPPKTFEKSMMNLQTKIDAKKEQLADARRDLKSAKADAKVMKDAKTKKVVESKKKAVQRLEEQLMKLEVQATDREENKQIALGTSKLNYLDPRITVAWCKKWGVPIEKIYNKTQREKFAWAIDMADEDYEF
Description: Test A. Topoisomerase I—Mediated DNA Cleavage Assay Human topoisomerase I was expressed in Escherichia coli and isolated as a recombinant fusion protein using a T7 expression system as described previously (31). Plasmid YepG was also purified by the alkali lysis method followed by phenol deproteination and CsCl/ethidium isopycnic centrifugation method as described (32). The 3′ end labeling of the plasmid was accomplished by digestion with a restriction enzyme followed by end filling with Klenow polymerase as previously described (33). The cleavage assays were performed as previously reported (34,35). The drug and the DNA in presence of topoisomerase I was incubated for 30 min at room temperature. The reactions were terminated by the addition of 5 μL of 5% SDS and 1 mg/mL […] with an additional 1 h of incubation at 37° C. […] After development of the gels, typically 24-h exposure was used to obtain autoradiograms outlining the extent of DNA fragmentation. Topoisomerase I-mediated DNA cleavage values are reported as Relative Effective Concentration (REC). […] Results for the assay for representative compounds of the invention of formula I along with comparison compounds are shown in Table 1.

[1] = test system: RPMI 8402 human lymphoblast cells; assay: Test B. MTT cytotoxicity assay, RPMI8402; assay type: cell-based
Description: (§1) Test B. Cytotoxic Assays (Cancer Cell Lines and Efflux Transporter Cell Lines)
(§2) The cytotoxicity was determined using the MTT-microtiter plate tetrazolinium cytotoxicity assay (MTA). The human lymphoblast RPMI 8402 and its camptothecin-resistant variant cell line, CPT-K5 was provided by Dr. Toshiwo Andoh (Aichi Cancer Center Research Institute, Nagoya, Japan). (36) The P388 mouse leukemia cell line and its CPT-resistant TOP1-deficient variant P388/CPT45 (37) were obtained from Michael R. Mattern and Randal K. Johnson (GlaxoSmithKline, King of Prussia, Pa.). The KB3-1 cell line and its multidrug-resistant variant KBV-1 (38) were obtained from K. V. Chin (The Cancer Institute of New Jersey, New Brunswick, N.J.). The KBH5.0 cell line as noted previously (21) was derived from KB3-1 by stepwise selection against Hoechst 33342. The cytotoxicity assay was performed using 96-well microtiter plates. Cells were grown in suspension at 37° C. in 5% CO2 and maintained by regular passage in RPMI medium supplemented with 10% heat inactivated fetal bovine serum, L-glutamine (2 mM), penicillin (100 U/mL), and Streptomycin (0.1 mg/mL). For determination of IC50, cells were exposed continuously for FOUR days to varying concentrations of drug, and MTT assays were performed at the end of the fourth day. […] All assays were performed at least twice in six replicate wells.

[2] = test system: CPT-K5 (camptothecin-resistant variant of RPMI 8402); assay: Test B. MTT cytotoxicity assay, CPT-K5; assay type: cell-based, human
Description: as §1, §2

[3] = test system: P388 mouse leukemia cell line; assay: Test B. MTT cytotoxicity assay, P388; assay type: cell-based
Description: as §1, §2

[4] = test system: P388/CPT45 (CPT-resistant TOP1-deficient variant of P388); assay: Test B. MTT cytotoxicity assay, P388/CPT45; assay type: cell-based, mouse; conditions: read-out: Cytotoxicity IC50 P388/CPT45
Description: as §1, §2

[5] = Cytotoxicity on KB3-1 (parent cell line); assay type: cell-based; conditions: human
Description: as §2
(§3) The cytotoxicity of the representative compounds of the invention were also tested on cell line KB3-1 (parent cell line), KBV-1 (a variant that overexpresses efflux transporter MDR1) and KBH5.0 (a variant that overexpresses BCRP). Differences in the relative cytotoxicity between the parent and variant cell lines may be indicative of a compound that is a substrate for an efflux transporter. […] Accordingly, compounds of the invention of formula I may be useful to treat tumors that are resistant to other anticancer agents, especially anticancer agents that are susceptible to efflux by BCRP (e.g. anthracyclines, mitoxantrone, topotecan, irinotecan, bisanthrone, doxorubicin, daunorubicin, and epirubin.

MDR1 = assay: Cytotoxicity on KBV-1 (overexpresses MDR1); assay type: cell-based; conditions: human
Description: as §2, §3

BCRP = assay: Cytotoxicity on KBH5.0 (overexpresses BCRP); assay type: cell-based; conditions: human
Description: as §2, §3

KB3-1 cell line = assay: Cytotoxicity on KB3-1 (parent cell line); assay type: cell-based
Description: as §2, §3

[6] = test system: KBV-1 (variant that overexpresses efflux transporter MDR1); assay: Cytotoxicity on KBV-1 (overexpresses MDR1); assay type: cell-based
Description: as §2, §3

[7] = test system: KBH5.0 (variant that overexpresses BCRP); assay: Cytotoxicity on KBH5.0 (overexpresses BCRP); assay type: cell-based; conditions: for substrate for BCRP: not told
Description: as §2, §3

[8] = Homo sapiens, RPMI 8402, 96 h, read-out: Cytotoxicity IC50 RPMI8402
[9] = Homo sapiens, CPT-K5, 96 h, read-out: Cytotoxicity IC50 CPT-K5
[10] = Mus musculus, P388, 96 h, read-out: Cytotoxicity IC50 P388

Row | Structure (SMILES) | TOP1 Mediated DNA Cleavage (REC Value) (human topoisomerase I) | IC50 ([4]; Mus musculus, P388CPT45, 96 h) [nM] | IC50 [1, 8] [nM] | IC50 [2, 9] [nM] | IC50 [3, 10] [nM] | IC50 at 4 days [5] [nM] | IC50 at 4 days (MDR1) [nM] | IC50 at 4 days (BCRP) [nM] | melting point | further results
1 | CC[C@@]1(O)C(=O)OCc2c1cc1n(c2=O)Cc2cc3ccccc3nc2-1 [CPT, Camptothecin, reference compound] | 0.2 | > 10000 | – | – | – | – | – | – | – | IC50 ([1]; Homo sapiens, RPMI 8402, 96 h, RPMI8402, four days continuous exposure, MTT, read-out: Cytotoxicity IC50 RPMI8402): 6 nM; IC50 ([2]; Homo sapiens, 96 h, CPT-K5, four days continuous exposure, MTT, read-out: Cytotoxicity IC50 CPT-K5): > 10000 nM; IC50 ([3]; Mus musculus, 96 h, P388, four days continuous exposure, MTT, read-out: Cytotoxicity IC50 P388): 14 nM; IC50 at 4 days ([5]; KB3-1 cells (parent cell line), KB3-1 parent cell line, read-out: Cytotoxicity KB3-1): 15 nM; IC50 at 4 days (MDR1; KBV-1, overexpresses MDR1, read-out: Cytotoxicity KBV-1): 25 nM; IC50 at 4 days (BCRP; KBH5.0 cells (KB3-1 variant that overexpresses BCRP), KBH5.0, overexpresses BCRP, read-out: Cytotoxicity KBH5.0): 26 nM
2 | COc1cc2c(C(=O)NCC(C)(C)N(C)C)cc3c4cc5c(cc4ncc3c2cc1OC)OCO5 [Compound 31, 2,3-Dimethoxy-N-(2-(dimethylamino)-2-methylpropyl)-8,9-methylene-dioxybenzo[i] phenanthridine-12-carboxamide] | 0.1 | – | – | – | – | – | – | – | – | IC50 [1]: 2 nM; IC50 [2]: 790 nM; IC50 [3]: 2 nM; IC50 ([4]; P388/CPT45, four days continuous exposure, MTT): 250 nM; IC50 (KB3-1 cell line): 1 nM; IC50 [6]: 30 nM; IC50 [7]: 4 nM; substrate for BCRP [7]: not substrates for BCRP
3 | COc1cc2c(C(=O)NCC(C)(C)N)cc3c4cc5c(cc4ncc3c2cc1OC)OCO5 [Compound 33, N-(2-Amino-2-methylpropyl)-2,3-dimethoxy-8,9-methylenedioxybenzo[i]phenanthridine-12-carboxamide] | 1.1 | 760 | 10 | 2200 | 20 | 4 | 480 | 190 | 269 to 271 °C (dec.) | –
4 | COc1cc2cc(C(=O)NCC(C)(C)N(C)C)c3c4cc5c(cc4ncc3c2cc1OC)OCO5 [Compound 34, 2,3-Dimethoxy-8,9-methylenedioxybenzo[i]phenanthridine-11-carboxylic acid 2-(dimethylamino)-2-methylpropylamide] | 0.09 | 230 | 3 | 500 | 2 | 3 | 65 | 10 | 222 to 225 °C | substrate for BCRP [7]: not substrates for BCRP
5 | COc1cc2c(C(=O)NCCC(C)(C)N(C)C)cc3c4cc5c(cc4ncc3c2cc1OC)OCO5 [Compound 42, 2,3-Dimethoxy-N-(3-(dimethylamino)-3-methylbutyl)-8,9-methylenedioxybenzo[i]phenanthridine-12-carboxamide] | 2.3 | 530 | 25 | 2070 | 90 | 50 | 2500 | 160 | 228 to 230 °C | –
6 | COc1cc2c(C(=O)NCCCC(C)(C)N(C)C)cc3c4cc5c(cc4ncc3c2cc1OC)OCO5 [Compound 43, 2,3-Dimethoxy-N-(4-(dimethylamino)-4-methylpentyl)-8,9-methylenedioxybenzo[i]phenanthridine-12-carboxamide] | 3.4 | 400 | 160 | 3000 | 180 | 250 | 2800 | 600 | 235 to 237 °C | –
7 | COc1cc2cc(C(=O)NCCC(C)(C)N(C)C)c3c4cc5c(cc4ncc3c2cc1OC)OCO5 [Compound 44, 2,3-Dimethoxy-8,9-methylenedioxybenzo[i]phenanthridine-11-carboxylic acid 3-(dimethylamino)-3-methylbutylamide] | 0.4 | 1270 | 150 | 5000 | 270 | 240 | > 10000 | 470 | 233 to 235 °C | –
8 | COc1cc2cc(C(=O)NCCCC(C)(C)N(C)C)c3c4cc5c(cc4ncc3c2cc1OC)OCO5 [Compound 45, 2,3-Dimethoxy-8,9-methylenedioxybenzo[i]phenanthridine-11-carboxylic acid 4-(dimethylamino)-4-methylpentylamide] | 2.5 | 3250 | 280 | 5500 | 280 | 210 | > 10000 | 850 | 239 to 242 °C | –
9 | COc1cc2c(C(=O)NCCN(C)C)cc3c4cc5c(cc4ncc3c2cc1OC)OCO5 [Compound 206, reference compound] | 0.1 | 320 | 3 | 1000 | 3 | 5 | 220 | 60 | – | –
10 | COc1cc2cc(C(=O)NCCN(C)C)c3c4cc5c(cc4ncc3c2cc1OC)OCO5 [Compound 216, reference compound] | 0.2 | 260 | 35 | 630 | 15 | 27 | 1400 | 200 | – | –
11 | CC[C@@]1(O)C(=O)OCc2c1cc1n(c2=O)Cc2cc3c(CN(C)C)c(O)ccc3nc2-1 [Topotecan, topotecan, reference compound] | 1.0 | > 10000 | 21 | > 10000 | 45 | 40 | 440 | 440 | – | –
